Residues, ends and D or L forms follow the SMILES beside them.
Assays:
[1] = tested on: MCF7 cells; experiment: Cytotoxicity MTT assay, MCF7; assay type: cell-based, human; conditions: 48 h
Description: (§1) Human cervical adenocarcinoma (HeLa) cells (cat# CRM-CCL-2) were obtained from the American Type Culture Collection (ATCC, Manassas, VA, USA). Human breast adenocarcinoma (MCF7) cells, Human prostate adenocarcinoma (PC3) cells, Human gastric adenocarcinoma (AGS) cells and Human Embryonic Kidney cells (HEK293T) were kindly provided by the Universidad Industrial de Santander. HeLa, MCF7, and HEK293T cells were cultured in DMEM medium supplemented with 10% FBS (fetal bovine serum), 1% penicillin/streptomycin. PC3 and AGS cells were cultured in RPMI medium supplemented with 10% FBS, 1% penicillin/streptomycin. All cells were maintained at 37 °C and 5% CO2.
(§2) 15,000 cells per well were plated in 96-well plates (Greiner, Fisher Scientific, Waltham, MA, USA) using a fully complemented medium, and incubated at 37 °C. Following a 24 h period, cells underwent serum starvation before being treated with KP10 and its analogs at concentrations of 10, 100, 250, and 500 nM for 48 h. Subsequently, each well received 100 µL of MTT solution (0.5 mg/mL), and the plates were incubated at 37 °C for 3 h. After adding the MTT solvent and further incubation for 15 min, the resultant absorbance was measured at 590 nm using a BioTech RT-2100C microplate reader. Data analysis was performed using Prism 8.0 software (GraphPad).

[2] = target: T1, kisspeptin receptor (Homo sapiens, UniProt Q969F8); experiment: BRET assay, Gq pathway; assay type: cell-based; design: expressed in transfected cells; host or cells: HeLa cells, transient transfection with PEI; conditions: for EC50 / Emax: HeLa cells, Gq pathway; for Emax: KP10 = 100%
T1 sequence (Q969F8 whole entry, the tested form may be a part): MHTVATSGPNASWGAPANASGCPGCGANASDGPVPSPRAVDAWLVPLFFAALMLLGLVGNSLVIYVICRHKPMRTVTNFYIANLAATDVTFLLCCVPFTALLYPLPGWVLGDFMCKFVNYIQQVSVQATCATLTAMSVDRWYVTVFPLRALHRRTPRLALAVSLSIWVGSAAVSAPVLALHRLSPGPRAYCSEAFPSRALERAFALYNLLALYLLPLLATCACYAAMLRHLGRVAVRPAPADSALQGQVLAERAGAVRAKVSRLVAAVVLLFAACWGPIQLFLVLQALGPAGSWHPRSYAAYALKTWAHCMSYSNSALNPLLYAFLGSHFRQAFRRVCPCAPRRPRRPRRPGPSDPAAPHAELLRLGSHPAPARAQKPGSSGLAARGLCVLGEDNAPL
From the text: (§3) The Bioluminescence Resonance Energy Transfer (BRET) assay was developed as described before. Briefly, HeLa cells were transiently transfected with these plasmids encoding for the GPCR, Gα subunit, the G protein effectors tagged with the BRET donor (RlucII), and the plasma membrane anchor (the CAAX motif from KRas, which includes a prenylation and a polybasic domain) fused to the BRET acceptor rGFP using Polietilendiimine (PEI) as described in Avet et al.. Fourty-eight hours post-transfection, cells were incubated with the coelenterazine substrate for Renilla luciferase Prolume Purple, stimulated with kisspeptin receptor agonists for 10 min and BRET signals were measured using a dual-filter luminometer (SPARK, Tecan Life Sciences, Männedorf, Switzerland). BRET ratios were calculated by dividing the acceptor emission by the donor emission, providing a quantitative measure for […]. Data were analyzed using Prism 8.0 (GraphPad) to determine interaction dynamics under various experimental conditions.

[3] = target: T1, kisspeptin receptor; experiment: BRET assay, G11 pathway; assay type: cell-based; design: expressed in transfected cells; host or cells: HeLa cells, transient transfection with PEI; conditions: for Emax / EC50: HeLa cells, G11 pathway; for Emax: KP10 = 100%; for EC50: read-out: pEC50 G11 (converted)
From the text: as §3

[4] = target: T1, kisspeptin receptor; experiment: BRET assay, G14 pathway; assay type: cell-based; design: expressed in transfected cells; host or cells: HeLa cells, transient transfection with PEI; conditions: for Emax / EC50: HeLa cells, G14 pathway; for Emax: KP10 = 100%; for EC50: read-out: pEC50 G14 (converted)
From the text: as §3

[5] = target: T1, kisspeptin receptor; experiment: BRET assay, G15 pathway; assay type: cell-based; design: expressed in transfected cells; host or cells: HeLa cells, transient transfection with PEI; conditions: for Emax / EC50: HeLa cells, G15 pathway; for Emax: KP10 = 100%; for EC50: read-out: pEC50 G15 (converted)
From the text: as §3

[6] = target: T1, kisspeptin receptor; experiment: BRET assay, Gz pathway; assay type: cell-based; design: expressed in transfected cells; host or cells: HeLa cells, transient transfection with PEI; conditions: for Emax / EC50 / Δ(logτ/KA) bias factor, Gαz pathway: HeLa cells; for Emax / EC50: Gz pathway; for Emax: KP10 = 100%; for Δ(logτ/KA) bias factor, Gαz pathway: operational model, KP10 as reference
From the text: as §3, with “conditions. The bias factor for the kisspeptin analogs was calculated using the operational model of agonism as described by Kenakin [31]. Emax and EC50 values were determined for each signaling pathway (e.g., G protein activation, β-arrestin recruitment). The data were then fitted to the operational model to estimate transduction coefficients (τ). The bias factor (ΔLog(τ/KA)) was calculated by comparing the τ/KA values for each pathway relative to a reference pathway. This method quantifies signaling bias by evaluating relative efficacy and potency across pathways. Statistical significance of the observed bias was assessed to ensure the differences were not due to random variation. All calculations and analyses were performed using GraphPad Prism software (GraphPad, San Diego, CA, USA).” for “conditions.”

[7] = target: T1, kisspeptin receptor; experiment: BRET assay, β-arrestin1 recruitment; assay type: cell-based; design: expressed in transfected cells; host or cells: HeLa cells, transient transfection with PEI; conditions: for Emax / EC50: HeLa cells, β-arrestin1 recruitment; for Emax: KP10 = 100%; for EC50: mean of 4 experiments
From the text: as §3

[8] = target: T1, kisspeptin receptor; experiment: BRET assay, β-arrestin2 recruitment; assay type: cell-based; design: expressed in transfected cells; host or cells: HeLa cells, transient transfection with PEI; conditions: for Emax / EC50: HeLa cells, β-arrestin2 recruitment; for Emax: KP10 = 100%
From the text: as §3

[9] = tested on: PC3 cells; experiment: Cytotoxicity MTT assay, PC3; assay type: cell-based, human; conditions: 48 h
Description: as §1, §2

[10] = tested on: HeLa cells; experiment: In vitro wound healing assay, HeLa; assay type: cell-based, human; conditions: particularly at 48 and 72 h
Description: (§4) Cells (3 × 10^5 cells/well) were seeded in 24-well plates for 24 h. Then, a sterile pipette tip of 20–200 μL was held vertically to create a cross-shaped scratch in each well. The detached cells were carefully removed by washing with 500 μL PBS and shaking at 500 rpm for 5 min. Then, 500 μL of medium containing the peptides to be tested was added to each well and incubated for 72 h. Prior taking each image, the plate was washed with 500 μL of PBS and gently shaken for 30 s. Then, 500 μL of medium containing the corresponding peptides was added to each well again and images were taken at 24 h intervals using a Primovert microscope at 4× magnification and 1/3700 s exposure time. Wound opening areas were obtained using Prism 8.0 software (GraphPad).

[11] = tested on: MCF7 cells; experiment: In vitro wound healing assay, MCF7; assay type: cell-based, human; conditions: MCF7, particularly at 48 and 72 h
Description: as §4

[12] = tested on: PC3 cells; experiment: In vitro wound healing assay, PC3; assay type: cell-based, human; conditions: PC3, difference to control less marked
Description: as §4

[13] = tested on: AGS cells; experiment: In vitro wound healing assay, AGS; assay type: cell-based, human; conditions: difference to control less marked
Description: as §4

[14] = tested on: HEK293T cells; experiment: Cytotoxicity MTT assay, HEK293T; assay type: cell-based, human; conditions: 48 h
Description: as §1, §2

[15] = tested on: HeLa cells; experiment: Cytotoxicity MTT assay, HeLa; assay type: cell-based, human; conditions: 48 h
Description: as §1, §2

[16] = target: T1, kisspeptin receptor
[17] = target: T1, kisspeptin receptor; remark: listed apart in the source
[18] = mean of 4 experiments, read-out: EC50(M) Gz
[19] = mean of 4 experiments, read-out: EC50(M) β-arrestin2
[20] = read-out: pEC50 β-arrestin2 (converted)

For CC(C)C[C@H](NC(=O)CNC(=O)[C@H](Cc1ccccc1)NC(=O)[C@H](CO)NC(=O)[C@H](CC(N)=O)NC(=O)[C@H](C)NC(=O)[C@H](CC(N)=O)NC(=O)[C@@H](N)Cc1ccc(O)cc1)C(=O)N[C@@H](CCCNC(=N)N)C(=O)N[C@@H](Cc1ccccc1)C(N)=O [Ala^3-KP10] (H-YNANSFGLRF-NH2; N-terminus assumed), the “pIC50 MCF7” value [1] was 2.624, the EC50 [2] was 85.1 nM and the Emax [2] was 107%. The “Fc Gq” value ([2]; fold change of EC50 relative to KP10, Gq pathway) was 5.76, the Emax [3] was 102% and the EC50 [3] was 209 nM. For the same molecule, the “Fc G11” value ([3]; fold change of EC50 relative to KP10, G11 pathway) was 4.65, the Emax [4] was 100% and the EC50 [4] was 166 nM. The “Fc G14” value ([4]; fold change of EC50 relative to KP10, G14 pathway) was 4.28, the Emax [5] was 99.5% and the EC50 [5] was 135 nM. For the same molecule, the “Fc G15” value ([5]; fold change of EC50 relative to KP10, G15 pathway) was 4.92, the Emax [6] was 94% and the EC50 [6, 18] was 6.46e-07 M. The EC50 ([6]; read-out: pEC50 Gz (converted)) was 5.75e-07 M, the “Fc Gz” value ([6]; fold change of EC50 relative to KP10, Gz pathway) was 3.96 and the “Δ(logτ/KA) bias factor, Gαz pathway” value [6] was −0.7. The Emax [7] was 69%, the EC50 [7] was 1190 nM and the “Fc β-arrestin1” value ([7]; fold change of EC50 relative to KP10, β-arrestin1) was 2.01. It also gave an Emax [8] of 63.9%, an EC50 [8, 19] of 1.43e-06 M and an EC50 [8, 20] of 1e-06 M. For the same molecule, the “Fc β-arrestin2” value ([8]; fold change of EC50 relative to KP10, β-arrestin2) was 3.82.

CC(C)C[C@H](NC(=O)CNC(=O)[C@H](Cc1ccccc1)NC(=O)[C@H](CO)NC(=O)[C@H](C)NC(=O)[C@H](Cc1c[nH]c2ccccc12)NC(=O)[C@H](CC(N)=O)NC(=O)[C@@H](N)Cc1ccc(O)cc1)C(=O)N[C@@H](CCCNC(=N)N)C(=O)N[C@@H](Cc1ccccc1)C(N)=O [Ala^4-KP10] (H-YNWASFGLRF-NH2; N-terminus assumed) was tested, and the “pIC50 PC3” value [9] was 2.541, the “migration inhibition (wound closure)” value [10] was “most pronounced effects” and the “migration inhibition (wound closure)” value [11] was “most pronounced effects”. For the same molecule, the “migration inhibition (wound closure)” value [12] was “more inhibitory treatment”, the “migration inhibition (wound closure)” value [13] was “more inhibitory treatment” and the EC50 [2] was 214 nM. It also gave an Emax [2] of 104%, an Emax [3] of 106% and an EC50 [3] of 447 nM. It also gave an Emax [4] of 97.7%, an EC50 [4] of 355 nM and an Emax [5] of 101%. It also gave an EC50 [5] of 339 nM, an Emax [6] of 84.7% and an EC50 [6, 18] of 1.1e-06 M. The EC50 ([6]; read-out: pEC50 Gz (converted)) was 9.12e-07 M, the “Δ(logτ/KA) bias factor, Gαz pathway” value [6] was −1.66 and the Emax [7] was 69.1%. The EC50 [7] was 13000 nM, the Emax [8] was 79% and the EC50 [8, 19] was 2.58e-06 M. For the same molecule, the EC50 [8, 20] was 2.51e-06 M.

CC(C)C[C@H](NC(=O)CNC(=O)[C@H](Cc1ccccc1)NC(=O)[C@H](CO)NC(=O)[C@H](CC(N)=O)NC(=O)[C@H](Cc1c[nH]c2ccccc12)NC(=O)[C@H](CC(N)=O)NC(=O)[C@@H](N)Cc1ccc(O)cc1)C(=O)N[C@@H](CCCN=C(N)N)C(=O)N[C@@H](Cc1ccccc1)C(N)=O [KP-10, kisspeptin-10, reference compound] was tested, and the “pIC50 HEK293T” value [14] was 2.489, the “pIC50 PC3” value [9] was 2.678 and the EC50 [2] was 13.5 nM. It also gave an EC50 [3] of 38 nM, an EC50 [4] of 33.1 nM and an EC50 [5] of 26.9 nM. For the same molecule, the EC50 [6, 18] was 1.63e-07 M, the EC50 ([6]; read-out: pEC50 Gz (converted)) was 1.35e-07 M and the “Δ(logτ/KA) bias factor, Gαz pathway” value [6] was 0. The EC50 [8, 20] was 3.72e-07 M.

For “Ala^1-KP10: Ala-Asn-Trp-Asn-Ser-Phe-Gly-Leu-Arg-Phe; KP10 Ala-scan analog (ANWNSFGLRF; printed: Ala-Asn-Trp-Asn-Ser-Phe-Gly-Leu-Arg-Phe)”, the “pIC50 HEK293T” value [14] was 2.311, the “pIC50 HeLa” value [15] was 2.483 and the “pIC50 PC3” value [9] was 2.475.

“Ala^9-KP10: Tyr-Asn-Trp-Asn-Ser-Phe-Gly-Leu-Ala-Phe; KP10 Ala-scan analog (YNWNSFGLAF; printed: Tyr-Asn-Trp-Asn-Ser-Phe-Gly-Leu-Ala-Phe)” was tested, and the “pIC50 HeLa” value [15] was 2.429 and the “pIC50 PC3” value [9] was 2.295.

With “Ala^10-KP10: Tyr-Asn-Trp-Asn-Ser-Phe-Gly-Leu-Arg-Ala; KP10 Ala-scan analog (YNWNSFGLRA; printed: Tyr-Asn-Trp-Asn-Ser-Phe-Gly-Leu-Arg-Ala)” the “pIC50 HeLa” value [15] was 2.493 and the “pIC50 PC3” value [9] was 1.739.

Molecule YNANSFGLRF [Ala^3-KP10] has an EC50 of Gαz pathway activation, effector-RlucII / rGFP-CAAX BRET biosensor in transfected HeLa cells, 10 min stimulation [16] of 646 nM, an EC50 of β-arrestin1 recruitment, BRET biosensor in transfected HeLa cells [17] of 1190 nM and an EC50 of β-arrestin2 recruitment, BRET biosensor in transfected HeLa cells [17] of 1430 nM.

With YNWASFGLRF [Ala^4-KP10] the EC50 of Gαz pathway activation, effector-RlucII / rGFP-CAAX BRET biosensor in transfected HeLa cells, 10 min stimulation [16] was 1100 nM, the EC50 of β-arrestin1 recruitment, BRET biosensor in transfected HeLa cells [17] was 13000 nM and the EC50 of β-arrestin2 recruitment, BRET biosensor in transfected HeLa cells [17] was 2580 nM.

Source: paper PMC11352469, “Comprehensive Analysis of Kisspeptin Signaling: Effects on Cellular Dynamics in Cervical Cancer” (Biomolecules, 2024)
